Assays:
[1] = molecular target: Adenosine receptor (Rattus norvegicus) (UniProt P29276+P25099+P30543+P28647); assay: Displacement of [3H]CHA from rat brain adenosine receptor at 10e-4 M
[2] = molecular target: Adenosine receptor (Rattus norvegicus, UniProt P29276+P25099+P30543+P28647); assay: Displacement of [3H]CHA from rat brain adenosine receptor

Sequence of Adenosine receptor (Rattus norvegicus) (P25099 whole entry, looked up): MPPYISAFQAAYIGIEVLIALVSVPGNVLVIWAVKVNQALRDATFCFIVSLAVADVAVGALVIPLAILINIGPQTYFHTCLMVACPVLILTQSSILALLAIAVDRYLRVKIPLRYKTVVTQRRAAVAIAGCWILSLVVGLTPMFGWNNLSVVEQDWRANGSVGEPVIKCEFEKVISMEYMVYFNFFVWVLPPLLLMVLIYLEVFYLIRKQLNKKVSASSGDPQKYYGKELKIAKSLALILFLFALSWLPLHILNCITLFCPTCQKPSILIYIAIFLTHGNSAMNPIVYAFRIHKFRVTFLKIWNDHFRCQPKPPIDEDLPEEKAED
Sequence of Adenosine receptor (Rattus norvegicus) (P28647 whole entry, looked up): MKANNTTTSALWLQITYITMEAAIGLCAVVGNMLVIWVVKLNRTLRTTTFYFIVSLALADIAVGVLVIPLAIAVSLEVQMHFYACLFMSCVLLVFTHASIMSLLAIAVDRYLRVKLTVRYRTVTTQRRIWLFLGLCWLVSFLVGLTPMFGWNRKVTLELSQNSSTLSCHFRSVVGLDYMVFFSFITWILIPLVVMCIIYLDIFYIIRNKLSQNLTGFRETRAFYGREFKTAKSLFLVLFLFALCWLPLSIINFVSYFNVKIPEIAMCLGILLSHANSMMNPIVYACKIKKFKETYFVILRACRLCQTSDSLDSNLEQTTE
Sequence of Adenosine receptor (Rattus norvegicus) (P29276 whole entry, looked up): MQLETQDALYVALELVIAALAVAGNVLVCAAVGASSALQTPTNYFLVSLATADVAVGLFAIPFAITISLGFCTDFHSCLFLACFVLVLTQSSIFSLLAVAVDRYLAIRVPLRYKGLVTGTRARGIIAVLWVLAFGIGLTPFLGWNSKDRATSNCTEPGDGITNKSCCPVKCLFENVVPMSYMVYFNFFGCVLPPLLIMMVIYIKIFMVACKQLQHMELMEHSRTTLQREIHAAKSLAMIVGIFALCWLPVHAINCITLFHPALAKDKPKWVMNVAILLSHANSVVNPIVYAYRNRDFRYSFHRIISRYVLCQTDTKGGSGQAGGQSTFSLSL
Sequence of Adenosine receptor (Rattus norvegicus) (P30543 whole entry, looked up): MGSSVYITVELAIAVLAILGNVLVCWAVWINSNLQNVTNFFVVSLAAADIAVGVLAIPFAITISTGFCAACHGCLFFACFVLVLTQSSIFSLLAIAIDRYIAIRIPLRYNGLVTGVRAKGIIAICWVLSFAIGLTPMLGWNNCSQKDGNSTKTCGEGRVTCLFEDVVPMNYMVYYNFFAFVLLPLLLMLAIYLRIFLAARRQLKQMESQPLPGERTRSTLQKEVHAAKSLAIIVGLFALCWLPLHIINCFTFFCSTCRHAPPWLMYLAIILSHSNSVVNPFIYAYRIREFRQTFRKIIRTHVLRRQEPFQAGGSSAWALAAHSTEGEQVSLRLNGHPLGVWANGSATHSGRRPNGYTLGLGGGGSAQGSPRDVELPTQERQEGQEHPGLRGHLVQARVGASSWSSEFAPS

Compound	inhibition [1] [%]	IC50 [2] [µM]
C[C@@H](Cc1ccccc1)Nc1ncnc2c1cnn2[C@@H]1O[C@H](CO)[C@@H](O)[C@H]1O (stereo in doubt; 1)	47	
OC[C@H]1OC(n2ncc3c(NC4CCCCC4)ncnc32)[C@H](O)[C@@H]1O (stereo not given in full)		20.2
C[C@@H](Cc1ccccc1)Nc1ncnc2c1cnn2[C@@H]1O[C@H](CO)[C@@H](O)[C@H]1O (stereo in doubt)	31	
CCCNc1ncnc2c1cnn2C1O[C@H](CO)[C@@H](O)[C@H]1O (stereo not given in full)		76.5
CCCNc1ncnc2c1ncn2C1O[C@H](CO)[C@@H](O)[C@H]1O (stereo not given in full)		0.004
